Results on eight compounds are retold here after US11034650B2, “Compounds useful for treating a Mannheimia haemolytica or Histophilus somni infection” (Intervet Inc., priority 2016, dated 2021).

Common to all, as to format: cell-based
Experiment [1] has as its system Mannheimia haemolytica MH 10720 (154, BRD field isolate). Put plainly: MIC, broth-microdilution (CLSI VET01-A4), strain MH 10720. To be noted: Mannheimia haemolytica strain MH 10720, broth-microdilution; unit assumed. A digest of the protocol: (§1)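 Compounds were serially diluted twofold in microdilution trays. Growth was judged by eye, and the MIC was the lowest concentration showing no turbidity. Results were interpreted per CLSI VET01-S3.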
(Broth dilution looks for growth in wells or tubes with falling amounts of substance.)

Experiment [2] has as its system Mannheimia haemolytica MH 12587 (1071, BRD field isolate, macrolide-resistance: erm+, E+). The experiment is described as follows: MIC, broth-microdilution (CLSI VET01-A4), strain MH 12587. The conditions noted are these: Mannheimia haemolytica strain MH 12587, broth-microdilution; unit assumed. A digest of the protocol: as §1
Experiment [3] has as its system Pasteurella multocida PM 6391 (ATCC 43137, reference strain). Put plainly: MIC, broth-microdilution (CLSI VET01-A4), strain PM 6391. The conditions noted are these: Pasteurella multocida strain PM 6391, broth-microdilution; unit assumed. A digest of the protocol:
as §1

Experiment [4] concerns Pasteurella multocida PM 6267 (P 2225 (L386), reference strain, mouse infection strain). Put plainly: MIC, broth-microdilution (CLSI VET01-A4), strain PM 6267. To be noted: Pasteurella multocida strain PM 6267, broth-microdilution; unit assumed. An outline of the steps: as §1
The subject of experiment [5] is Mannheimia haemolytica MH 6374 (ATCC 33396, reference strain). The experiment is described as follows: MIC, broth-microdilution (CLSI VET01-A4), strain MH 6374. To be noted: Mannheimia haemolytica strain MH 6374, broth-microdilution; unit assumed. An outline of the steps:
as §1

The subject of experiment [6] is Pasteurella multocida PM 12080 (IV102277-0093, BRD field isolate). The experiment is described as follows: MIC, broth-microdilution (CLSI VET01-A4), strain PM 12080. To be noted: Pasteurella multocida strain PM 12080, broth-microdilution; unit assumed. A digest of the protocol: as §1
Experiment [7] deals with Mannheimia haemolytica MH 6357 (M7/2, reference strain, cattle infection strain). Put plainly: MIC, broth-microdilution (CLSI VET01-A4), strain MH 6357. The conditions noted are these: Mannheimia haemolytica strain MH 6357, broth-microdilution; unit assumed. A digest of the protocol: as §1
In experiment [8] the test system is Mannheimia haemolytica MH 13065 (XB0446-6003.9, BRD field isolate). The experiment is described as follows: MIC, broth-microdilution (CLSI VET01-A4), strain MH 13065. The conditions noted are these: Mannheimia haemolytica strain MH 13065, broth-microdilution; unit assumed. An outline of the steps: as §1
Experiment [9] concerns Mannheimia haemolytica MH 13093 (XB0472-6014.1, BRD field isolate). The experiment is described as follows: MIC, broth-microdilution (CLSI VET01-A4), strain MH 13093. The conditions noted are these: Mannheimia haemolytica strain MH 13093, broth-microdilution; unit assumed. A digest of the protocol: as §1
The subject of experiment [10] is Pasteurella multocida PM 10775 (080130003051, BRD field isolate). The experiment is described as follows: MIC, broth-microdilution (CLSI VET01-A4), strain PM 10775. The conditions noted are these: Pasteurella multocida strain PM 10775, broth-microdilution; unit assumed. A digest of the protocol:
as §1

The structures appear in SMILES notation. ≈ marks a conversion by molar mass, not a printed value. Some results are limits rather than exact numbers.

`CSC(C)(C)[C@H](NC(=O)c1ccc(C#Cc2ccc(CNCc3ccc(C)cc3)cc2)cc1)C(=O)NO` [Compound 252] showed an MIC MH 10720 in experiment [1] of 0.4 µg/mL (≈ 0.776 µM). The same compound came in with an MIC MH 12587 in [2] of 3.1 µg/mL (≈ 6.01 µM). Besides, the MIC PM 6391 in experiment [3] worked out at 0.8 µg/mL (≈ 1.55 µM). The compound further had an MIC PM 6267 in [4] of 0.4 µg/mL (≈ 0.776 µM). Also, the MIC MH 6374 in experiment [5] stood at 3.1 µg/mL (≈ 6.01 µM). In [6], the MIC PM 12080 was 0.8 µg/mL (≈ 1.55 µM). For the same compound, the MIC MH 6357 in experiment [7] worked out at 1.6 µg/mL (≈ 3.1 µM). In [8], this compound showed an MIC MH 13065 of 1.6 µg/mL (≈ 3.1 µM). In [9], the MIC MH 13093 was 1.6 µg/mL (≈ 3.1 µM). This compound also returned an MIC PM 10775 in experiment [10] of 0.4 µg/mL (≈ 0.776 µM).

In experiment [1], `CSC(C)(C)[C@H](NC(=O)c1ccc(C#Cc2ccc(CNCC3CCCO3)cc2)cc1)C(=O)NO` (some centres unmarked) [Compound 253] displayed an MIC MH 10720 of 0.8 µg/mL (≈ 1.61 µM). Also, in experiment [2], the MIC MH 12587 was determined as 3.1 µg/mL (≈ 6.25 µM). In addition, the MIC PM 6391 in experiment [3] came to 0.4 µg/mL (≈ 0.807 µM). The compound also returned an MIC PM 6267 in [4] of at most 0.1 µg/mL. Further, the MIC MH 6374 in experiment [5] was found to be 3.1 µg/mL (≈ 6.25 µM). This compound also returned an MIC PM 12080 in experiment [6] of 0.4 µg/mL (≈ 0.807 µM). This compound also yielded an MIC MH 6357 in experiment [7] of 3.1 µg/mL (≈ 6.25 µM). The compound further came in with an MIC MH 13065 in experiment [8] of 1.6 µg/mL (≈ 3.23 µM). In [9], this compound gave an MIC MH 13093 of 3.1 µg/mL (≈ 6.25 µM). Further, the MIC PM 10775 in experiment [10] is at most 0.1 µg/mL.

In the case of `CSC(C)(C)[C@H](NC(=O)c1ccc(C#Cc2ccc(CNCc3nccs3)cc2)cc1)C(=O)NO` [Compound 254], the MIC MH 10720 in experiment [1] is 0.2 µg/mL (≈ 0.393 µM). The MIC MH 12587 in experiment [2] was found to be 1.6 µg/mL (≈ 3.15 µM). In experiment [3], this compound displayed an MIC PM 6391 of 0.4 µg/mL (≈ 0.786 µM). For the same compound, the MIC PM 6267 in [4] was at most 0.1 µg/mL. The compound also came in with an MIC MH 6374 in experiment [5] of 1.6 µg/mL (≈ 3.15 µM). In addition, the MIC PM 12080 in experiment [6] is at most 0.1 µg/mL. Further, the MIC MH 6357 in experiment [7] is 0.8 µg/mL (≈ 1.57 µM). Besides, the MIC MH 13065 in experiment [8] turned out to be 0.8 µg/mL (≈ 1.57 µM). The MIC MH 13093 in experiment [9] was 0.8 µg/mL (≈ 1.57 µM). This compound also registered an MIC PM 10775 in experiment [10] of at most 0.1 µg/mL.

`COCCNCc1ccc(C#Cc2ccc(C(=O)N[C@H](C(=O)NO)C(C)(C)S(C)(=O)=O)cc2)cc1` [Compound 257] returned an MIC MH 10720 in experiment [1] of 0.4 µg/mL (≈ 0.797 µM). In [2], the MIC MH 12587 was determined as 3.1 µg/mL (≈ 6.18 µM). Also, the MIC PM 6391 in experiment [3] is 0.2 µg/mL (≈ 0.399 µM). In [4], this compound gave an MIC PM 6267 of at most 0.1 µg/mL. In experiment [5], the MIC MH 6374 turned out to be 1.6 µg/mL (≈ 3.19 µM). Besides, the MIC PM 12080 in experiment [6] was at most 0.1 µg/mL. In experiment [7], this compound gave an MIC MH 6357 of 3.1 µg/mL (≈ 6.18 µM). The MIC MH 13065 in experiment [8] is 1.6 µg/mL (≈ 3.19 µM). In experiment [9], this compound yielded an MIC MH 13093 of 1.6 µg/mL (≈ 3.19 µM). In experiment [10], this compound showed an MIC PM 10775 of at most 0.1 µg/mL.

Consider `CC(C)([C@H](NC(=O)c1ccc(C#Cc2ccc(CN3CCOCC3)cc2)cc1)C(=O)NO)S(C)(=O)=O` [Compound 258], for which the MIC MH 10720 in experiment [1] was 0.2 µg/mL (≈ 0.389 µM). This compound also showed an MIC MH 12587 in [2] of 1.6 µg/mL (≈ 3.12 µM). The same compound showed an MIC PM 6391 in experiment [3] of at most 0.1 µg/mL. The compound further gave an MIC PM 6267 in experiment [4] of at most 0.1 µg/mL. Besides, the MIC MH 6374 in [5] came out at 1.6 µg/mL (≈ 3.12 µM). Moreover, in experiment [6], the MIC PM 12080 is at most 0.1 µg/mL. This compound also gave an MIC MH 6357 in [7] of 1.6 µg/mL (≈ 3.12 µM). The MIC MH 13065 in experiment [8] turned out to be 0.8 µg/mL (≈ 1.56 µM). The MIC MH 13093 in experiment [9] was found to be 1.6 µg/mL (≈ 3.12 µM). This compound came in with an MIC PM 10775 in experiment [10] of at most 0.1 µg/mL.

For `COc1ccc(CNCc2ccc(C#Cc3ccc(C(=O)N[C@H](C(=O)NO)C(C)(C)S(C)(=O)=O)cc3)cc2)cc1` [Compound 260], the MIC MH 10720 in [1] is at most 0.1 µg/mL. For the same compound, in experiment [2], the MIC MH 12587 turned out to be 1.6 µg/mL (≈ 2.84 µM). The compound also came in with an MIC PM 6391 in [3] of at most 0.1 µg/mL. For the same compound, the MIC PM 6267 in experiment [4] is at most 0.1 µg/mL. Besides, the MIC MH 6374 in [5] turned out to be 0.4 µg/mL (≈ 0.71 µM). In [6], the MIC PM 12080 is at most 0.1 µg/mL. Further, in experiment [7], the MIC MH 6357 amounted to 1.6 µg/mL (≈ 2.84 µM). In [8], this compound registered an MIC MH 13065 of 0.4 µg/mL (≈ 0.71 µM). In experiment [9], this compound returned an MIC MH 13093 of 0.8 µg/mL (≈ 1.42 µM). The compound also displayed an MIC PM 10775 in [10] of at most 0.1 µg/mL.

Turning to `CC(C)([C@H](NC(=O)c1ccc(C#Cc2ccc(CN3CCCC3)cc2)cc1)C(=O)NO)S(C)(=O)=O` [Compound 262], in experiment [1], the MIC MH 10720 was determined as 1.6 µg/mL (≈ 3.22 µM). This compound also showed an MIC MH 12587 in [2] of 12.5 µg/mL (≈ 25.1 µM). Also, the MIC PM 6391 in experiment [3] came to 0.4 µg/mL (≈ 0.804 µM). In addition, the MIC PM 6267 in experiment [4] is at most 0.1 µg/mL. Further, the MIC MH 6374 in experiment [5] worked out at 6.3 µg/mL (≈ 12.7 µM). Besides, the MIC PM 12080 in experiment [6] was 0.4 µg/mL (≈ 0.804 µM). The same compound yielded an MIC MH 6357 in [7] of 12.5 µg/mL (≈ 25.1 µM). In [8], the MIC MH 13065 came to 6.3 µg/mL (≈ 12.7 µM). This compound also gave an MIC MH 13093 in experiment [9] of 6.3 µg/mL (≈ 12.7 µM). The compound also displayed an MIC PM 10775 in experiment [10] of at most 0.1 µg/mL.

As for `CC(C)([C@H](NC(=O)c1ccc(C#Cc2ccc(CNC3CCC3)cc2)cc1)C(=O)NO)S(C)(=O)=O` [Compound 263], in experiment [1], the MIC MH 10720 is 0.8 µg/mL (≈ 1.61 µM). In [2], this compound came in with an MIC MH 12587 of 6.3 µg/mL (≈ 12.7 µM). The compound also came in with an MIC PM 6391 in [3] of 0.4 µg/mL (≈ 0.804 µM). Further, the MIC PM 6267 in experiment [4] is at most 0.1 µg/mL. Also, the MIC MH 6374 in experiment [5] amounted to 3.1 µg/mL (≈ 6.23 µM). The compound further returned an MIC PM 12080 in experiment [6] of 0.2 µg/mL (≈ 0.402 µM). Further, the MIC MH 6357 in experiment [7] amounted to 6.3 µg/mL (≈ 12.7 µM). In [8], this compound showed an MIC MH 13065 of 3.1 µg/mL (≈ 6.23 µM). Also, the MIC MH 13093 in [9] came to 3.1 µg/mL (≈ 6.23 µM). The compound further registered an MIC PM 10775 in experiment [10] of at most 0.1 µg/mL.
